The target in assay [1] is PIK3CG (human) (UniProt P48736). Kind of assay: Cell-Based Assay. The conditions noted are these: u937.
Another assay deals with PIK3CD (Human) (UniProt O00329). Kind of assay: Enzyme Assay.
Assay [2] concerns the target PIK3CG (human) (UniProt P48736). The experiment in a line: Enzyme Assay.
In a further assay the target is PIK3CA (human) (UniProt P42336). The experiment in a line: Enzyme Assay.
A further assay deals with PIK3CB (Human) (UniProt P42338). The experiment in a line: Enzyme Assay.
Sequence of PIK3CB (Human) (P42338 whole entry, looked up): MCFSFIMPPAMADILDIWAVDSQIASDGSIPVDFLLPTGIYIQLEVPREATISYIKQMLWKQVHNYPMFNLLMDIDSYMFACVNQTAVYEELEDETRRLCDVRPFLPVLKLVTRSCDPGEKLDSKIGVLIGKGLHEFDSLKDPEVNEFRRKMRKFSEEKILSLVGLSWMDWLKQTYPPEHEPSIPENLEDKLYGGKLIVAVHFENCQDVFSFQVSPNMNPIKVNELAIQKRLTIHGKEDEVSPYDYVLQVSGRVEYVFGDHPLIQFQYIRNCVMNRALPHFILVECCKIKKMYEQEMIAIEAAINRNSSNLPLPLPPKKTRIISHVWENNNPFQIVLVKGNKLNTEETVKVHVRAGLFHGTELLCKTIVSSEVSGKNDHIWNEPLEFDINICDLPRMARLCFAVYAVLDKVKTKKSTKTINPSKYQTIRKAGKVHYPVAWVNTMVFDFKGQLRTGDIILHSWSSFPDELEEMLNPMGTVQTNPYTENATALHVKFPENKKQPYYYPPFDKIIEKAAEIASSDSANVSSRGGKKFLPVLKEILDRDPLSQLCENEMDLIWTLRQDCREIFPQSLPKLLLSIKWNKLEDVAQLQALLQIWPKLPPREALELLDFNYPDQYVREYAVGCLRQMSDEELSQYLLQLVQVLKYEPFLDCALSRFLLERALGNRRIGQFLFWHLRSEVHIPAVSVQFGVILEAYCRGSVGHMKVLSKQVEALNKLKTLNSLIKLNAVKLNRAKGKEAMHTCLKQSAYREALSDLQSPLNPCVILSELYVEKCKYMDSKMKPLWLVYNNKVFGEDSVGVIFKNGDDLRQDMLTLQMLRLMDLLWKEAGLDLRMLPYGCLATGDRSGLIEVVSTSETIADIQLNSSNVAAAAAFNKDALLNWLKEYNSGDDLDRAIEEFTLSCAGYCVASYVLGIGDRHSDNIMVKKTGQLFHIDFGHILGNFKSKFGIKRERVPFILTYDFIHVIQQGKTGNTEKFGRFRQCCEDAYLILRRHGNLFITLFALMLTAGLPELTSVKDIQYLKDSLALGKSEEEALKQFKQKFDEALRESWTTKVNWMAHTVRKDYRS

Sequence of PIK3CG (human) (P48736 whole entry, looked up): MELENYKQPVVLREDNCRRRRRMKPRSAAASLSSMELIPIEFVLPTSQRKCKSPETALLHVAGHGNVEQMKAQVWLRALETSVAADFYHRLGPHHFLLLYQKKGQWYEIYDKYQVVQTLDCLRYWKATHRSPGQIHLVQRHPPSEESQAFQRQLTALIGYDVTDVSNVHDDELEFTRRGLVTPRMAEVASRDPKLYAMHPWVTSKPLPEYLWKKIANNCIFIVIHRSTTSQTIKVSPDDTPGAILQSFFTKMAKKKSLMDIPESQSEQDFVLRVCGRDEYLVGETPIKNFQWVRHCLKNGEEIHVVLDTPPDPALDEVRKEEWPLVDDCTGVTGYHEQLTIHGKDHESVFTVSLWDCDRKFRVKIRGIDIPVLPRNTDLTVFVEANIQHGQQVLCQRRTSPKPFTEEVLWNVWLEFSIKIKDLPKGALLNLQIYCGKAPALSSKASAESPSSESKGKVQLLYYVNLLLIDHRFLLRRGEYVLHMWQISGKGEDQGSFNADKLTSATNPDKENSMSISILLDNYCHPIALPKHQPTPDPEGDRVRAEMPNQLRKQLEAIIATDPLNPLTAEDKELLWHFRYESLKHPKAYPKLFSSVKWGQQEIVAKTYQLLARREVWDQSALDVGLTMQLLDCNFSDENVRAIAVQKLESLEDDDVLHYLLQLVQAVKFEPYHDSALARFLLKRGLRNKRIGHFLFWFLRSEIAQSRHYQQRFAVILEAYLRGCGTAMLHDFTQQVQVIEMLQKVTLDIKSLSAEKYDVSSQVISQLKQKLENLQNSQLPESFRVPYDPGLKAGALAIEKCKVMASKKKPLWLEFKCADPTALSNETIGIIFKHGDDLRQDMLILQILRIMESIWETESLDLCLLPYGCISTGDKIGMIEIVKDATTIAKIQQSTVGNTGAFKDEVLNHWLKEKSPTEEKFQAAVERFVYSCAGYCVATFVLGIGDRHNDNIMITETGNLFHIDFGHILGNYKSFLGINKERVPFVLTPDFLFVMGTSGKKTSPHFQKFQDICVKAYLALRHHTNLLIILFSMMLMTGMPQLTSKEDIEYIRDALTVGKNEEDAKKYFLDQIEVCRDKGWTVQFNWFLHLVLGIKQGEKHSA
Sequence of PIK3CD (Human) (O00329 whole entry, looked up): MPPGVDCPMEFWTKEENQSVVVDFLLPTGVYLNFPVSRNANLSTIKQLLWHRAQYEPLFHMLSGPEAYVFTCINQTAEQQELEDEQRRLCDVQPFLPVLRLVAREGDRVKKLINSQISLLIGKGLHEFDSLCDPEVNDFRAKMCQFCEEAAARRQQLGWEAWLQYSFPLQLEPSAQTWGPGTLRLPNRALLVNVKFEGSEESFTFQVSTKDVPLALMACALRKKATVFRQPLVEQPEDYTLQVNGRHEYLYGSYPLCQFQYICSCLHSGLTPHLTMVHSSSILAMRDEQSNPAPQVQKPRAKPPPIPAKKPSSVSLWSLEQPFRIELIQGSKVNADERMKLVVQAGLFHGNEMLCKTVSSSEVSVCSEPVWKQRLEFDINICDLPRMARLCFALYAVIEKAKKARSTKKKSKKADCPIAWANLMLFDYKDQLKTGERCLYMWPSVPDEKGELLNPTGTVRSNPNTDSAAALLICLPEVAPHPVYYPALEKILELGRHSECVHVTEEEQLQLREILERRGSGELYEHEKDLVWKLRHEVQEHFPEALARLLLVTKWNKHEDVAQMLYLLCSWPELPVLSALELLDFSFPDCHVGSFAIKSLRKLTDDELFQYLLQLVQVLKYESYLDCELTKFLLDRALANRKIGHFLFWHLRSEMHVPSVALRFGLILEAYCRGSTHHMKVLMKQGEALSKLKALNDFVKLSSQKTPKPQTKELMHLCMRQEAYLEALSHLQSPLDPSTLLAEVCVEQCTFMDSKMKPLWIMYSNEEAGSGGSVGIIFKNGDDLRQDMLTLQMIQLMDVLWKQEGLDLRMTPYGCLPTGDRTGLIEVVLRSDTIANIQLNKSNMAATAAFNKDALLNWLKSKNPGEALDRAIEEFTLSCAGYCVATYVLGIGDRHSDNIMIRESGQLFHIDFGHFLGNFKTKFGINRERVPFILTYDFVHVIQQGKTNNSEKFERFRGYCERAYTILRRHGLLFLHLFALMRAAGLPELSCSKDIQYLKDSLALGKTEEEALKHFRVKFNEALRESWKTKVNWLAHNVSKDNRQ
Sequence of PIK3CA (human) (P42336 whole entry, looked up): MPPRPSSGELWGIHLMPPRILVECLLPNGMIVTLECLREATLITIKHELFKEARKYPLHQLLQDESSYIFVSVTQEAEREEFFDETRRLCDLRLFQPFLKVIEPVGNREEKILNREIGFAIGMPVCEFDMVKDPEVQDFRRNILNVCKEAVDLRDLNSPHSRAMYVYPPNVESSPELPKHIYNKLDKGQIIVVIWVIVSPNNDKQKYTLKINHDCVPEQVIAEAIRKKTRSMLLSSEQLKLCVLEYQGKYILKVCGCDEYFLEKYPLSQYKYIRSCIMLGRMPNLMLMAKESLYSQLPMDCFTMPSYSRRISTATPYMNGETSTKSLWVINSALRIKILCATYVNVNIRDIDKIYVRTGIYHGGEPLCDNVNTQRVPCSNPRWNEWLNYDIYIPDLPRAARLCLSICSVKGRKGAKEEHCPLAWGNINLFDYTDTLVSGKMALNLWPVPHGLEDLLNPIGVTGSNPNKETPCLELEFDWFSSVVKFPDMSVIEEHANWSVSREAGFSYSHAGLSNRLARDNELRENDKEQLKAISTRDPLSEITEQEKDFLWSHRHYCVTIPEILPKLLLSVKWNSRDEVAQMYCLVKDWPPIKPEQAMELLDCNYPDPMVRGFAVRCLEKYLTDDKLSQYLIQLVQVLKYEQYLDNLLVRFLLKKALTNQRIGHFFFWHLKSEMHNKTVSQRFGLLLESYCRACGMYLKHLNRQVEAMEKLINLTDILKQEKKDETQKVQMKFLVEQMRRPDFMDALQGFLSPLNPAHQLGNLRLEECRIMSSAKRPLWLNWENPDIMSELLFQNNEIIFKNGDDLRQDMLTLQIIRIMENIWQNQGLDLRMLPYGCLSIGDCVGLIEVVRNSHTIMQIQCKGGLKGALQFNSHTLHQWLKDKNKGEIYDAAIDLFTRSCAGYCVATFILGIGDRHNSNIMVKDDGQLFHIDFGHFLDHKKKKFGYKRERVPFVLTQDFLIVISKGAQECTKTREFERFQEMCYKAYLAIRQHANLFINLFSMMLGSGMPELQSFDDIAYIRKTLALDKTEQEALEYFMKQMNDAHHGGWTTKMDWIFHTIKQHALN

On to `Cc1ccc(S(=O)(=O)N[C@H]2CC[C@H](O)CC2)cc1-c1cncc(-c2csc(CN3CCOCC3)c2)n1`, for which the concentration for half-maximal inhibition (IC50) (as a rule, the concentration that gives 50% inhibition) on PIK3CG (human) [1] is 0.122 µM; on PIK3CD (Human), 0.01 µM; on PIK3CG (human) [2] it was 0.006 µM; against PIK3CA (human) it was 0.16 µM; against PIK3CB (Human) it was above 9.1 µM.

In the case of `Cc1ccc(S(=O)(=O)NC2CC3(CC(O)C3)C2)cc1-c1cncc(-c2cn(C)nc2C)n1` (stereo not given), the IC50 against PIK3CG (human) [1] was 0.022 µM; at PIK3CD (Human), 0.09 µM; on PIK3CG (human) [2], 0.013 µM; against PIK3CA (human), 0.04 µM; at PIK3CB (Human), 0.45 µM.

Turning to `Cc1ccc(S(=O)(=O)NC[C@H]2C[C@@H](O)C2)cc1-c1cncc(-c2cn(C)nc2C)n1`, the IC50 at PIK3CG (human) [1] worked out at 0.061 µM; against PIK3CD (Human), 0.1 µM; at PIK3CG (human) [2] it was 0.011 µM; against PIK3CA (human) it was 0.09 µM; on PIK3CB (Human) it was 0.63 µM.

For `Cc1cc(-c2cncc(-c3cc(S(=O)(=O)NC[C@H]4C[C@@H](O)C4)ccc3C)n2)n(C)n1`, the IC50 at PIK3CG (human) [1] came to 0.122 µM; at PIK3CD (Human), 0.04 µM; against PIK3CG (human) [2] it was 0.038 µM; at PIK3CA (human) it was 0.1 µM; on PIK3CB (Human), 1.9 µM.

The values are drawn from the Kinase Knowledgebase extract (Sharma et al. 2016).
